Laboratory results taken from the NIST ThermoML archive (doi:10.1016/j.jct.2009.09.009).
Where “and” joins values, the source holds several entries; their conditions need not be identical. Equal values may be shown once. Numbers after ± are expanded uncertainties.

Assays:
[1] = molar enthalpy of vaporization or sublimation; settings: Crystal, Clausius-Clapeyron equation and measured Psat
[2] = Crystal, Calculated from knudsen effusion weight loss

Nc1cccc2c(N)cccc12 [1,5-diaminonaphthalene]
Settings | molar enthalpy [kcal/mol] | vapor or sublimation pressure
[1], 378.11 K | 28.3 ± 0.717 | –
[2], 367.07 K | – | 0.000122 ± 6e-06 kPa and 0.000123 ± 6e-06 kPa and 0.000125 ± 6e-06 kPa
[2], 369.1 K | – | 0.00015 ± 8e-06 kPa and 0.000153 ± 8e-06 kPa and 0.000149 ± 7e-06 kPa
[2], 371.16 K | – | 0.000193 ± 1e-05 kPa and 0.00019 ± 1e-05 kPa and 0.000182 ± 9e-06 kPa
[2], 373.08 K | – | 0.000243 ± 1.2e-05 kPa and 0.000229 ± 1.1e-05 kPa and 0.000246 ± 1.2e-05 kPa
[2], 375.1 K | – | 0.000311 ± 1.6e-05 kPa and 0.000289 ± 1.4e-05 kPa and 0.000286 ± 1.4e-05 kPa
[2], 377.16 K | – | 0.000365 ± 1.8e-05 kPa and 0.000344 ± 1.7e-05 kPa and 0.000338 ± 1.7e-05 kPa
[2], 379.09 K | – | 0.000432 ± 2.2e-05 kPa and 0.000427 ± 2.1e-05 kPa and 0.000417 ± 2.1e-05 kPa
[2], 381.1 K | – | 0.000535 ± 2.7e-05 kPa and 0.000522 ± 2.6e-05 kPa and 0.000502 ± 2.5e-05 kPa
[2], 383.16 K | – | 0.00064 ± 3.2e-05 kPa and 0.000622 ± 3.1e-05 kPa and 0.000603 ± 3e-05 kPa
[2], 385.08 K | – | 0.000758 ± 3.8e-05 kPa and 0.000781 ± 3.9e-05 kPa and 0.000757 ± 3.8e-05 kPa
[2], 387.09 K | – | 0.000967 ± 4.8e-05 kPa and 0.00093 ± 4.7e-05 kPa and 0.000909 ± 4.6e-05 kPa
[2], 389.16 K | – | 0.001163 ± 0.00012 kPa and 0.001096 ± 0.00011 kPa and 0.001063 ± 0.00011 kPa

Nc1cccc2cccc(N)c12 [1,8-diaminonaphthalene]
Settings | molar enthalpy [kcal/mol] | vapor or sublimation pressure
[1], 326.09 K | 23.3 ± 0.335 | –
[2], 314.1 K | – | 4.71e-05 ± 2.4e-06 kPa and 4.91e-05 ± 2.5e-06 kPa and 4.81e-05 ± 2.4e-06 kPa
[2], 316.18 K | – | 6.84e-05 ± 3.4e-06 kPa and 6.65e-05 ± 3.3e-06 kPa and 6.32e-05 ± 3.2e-06 kPa
[2], 318.18 K | – | 8.3e-05 ± 4.2e-06 kPa and 7.89e-05 ± 4e-06 kPa and 8.02e-05 ± 4e-06 kPa
[2], 320.09 K | – | 0.000102 ± 5e-06 kPa and 9.96e-05 ± 5e-06 kPa
[2], 322.13 K | – | 0.000135 ± 7e-06 kPa and 0.000127 ± 6e-06 kPa and 0.000126 ± 6e-06 kPa
[2], 324.19 K | – | 0.000165 ± 8e-06 kPa and 0.000155 ± 8e-06 kPa and 0.000159 ± 8e-06 kPa
[2], 326.12 K | – | 0.000197 ± 1e-05 kPa and 0.000204 ± 1e-05 kPa and 0.000181 ± 9e-06 kPa
[2], 328.19 K | – | 0.000261 ± 1.3e-05 kPa and 0.000251 ± 1.3e-05 kPa and 0.000244 ± 1.2e-05 kPa
[2], 330.17 K | – | 0.000315 ± 1.6e-05 kPa and 0.000298 ± 1.5e-05 kPa and 0.000296 ± 1.5e-05 kPa
[2], 332.07 K | – | 0.000351 ± 1.8e-05 kPa and 0.000379 ± 1.9e-05 kPa and 0.000364 ± 1.8e-05 kPa
[2], 334.12 K | – | 0.000485 ± 2.4e-05 kPa and 0.000472 ± 2.4e-05 kPa and 0.000466 ± 2.3e-05 kPa
[2], 336.19 K | – | 0.000583 ± 2.9e-05 kPa and 0.00056 ± 2.8e-05 kPa and 0.000585 ± 2.9e-05 kPa
[2], 338.08 K | – | 0.000707 ± 3.5e-05 kPa and 0.000739 ± 3.7e-05 kPa and 0.000734 ± 3.7e-05 kPa
